Literature values in patent EP1121935B1, “Pharmaceutical composition containing a small or medium size peptide” (Patents Exploitation Company B.V., priority 2000, dated 2001).

Columns and labels:
[1] = solutions free from preservative; polystyrene, polypropylene and glass tubes; 24 hours at room temperature
nasal ciliar motility = settings: reported by Hofmann T. et al., 1998

| loss of active principle because of the adsorption by the walls [1] | Substance | effect on nasal ciliar motility (nasal ciliar motility) |
| --- | --- | --- |
| about the half | 1-(3-mercaptopropanoic acid)-8-D-argininevasopressin [desmopressin] | – |
| – | benzalkonium chloride | irreversible suppression of the nasal ciliar motility |
